Like-named read-outs stand apart in the source and are kept apart here.
Tests used:
[1] = Pharmacokinetic study of DPTM in rats after i.v., i.m. and p.o. administration (HPLC-MS/MS, non-compartmental); type: in vivo; conditions: Sprague-Dawley, plasma, rat; for Tmax: median (min–max); for bioavailability: read-out: F, absolute bioavailability; for MRT last: read-out: MRT0–t; for CL renal: read-out: CLR(0–t) renal clearance; for Vd: read-out: Vss
Experimental: After administration of three i.v., i.m. and p.o. dose (10, 25 and 75 mg/kg) of DPTM to rats, the pharmacokinetic profiles of DPTM were quantified by the validated HPLC-MS/MS methods. […] Blood samples (approximately 200 µL) were collected into heparinized tubes through an indwelling catheter inserted in the jugular vein [30] at 0.083, 0.166, 0.5, 1, 2, 4, 6, 8, 12 and 24 h after i.v. dosing and at 0.083, 0.166, 0.5, 1, 2, 4, 6, 8, 12, 24 and 48 h after i.m. or p.o. dosing. The samples were immediately centrifuged (4000 rpm for 10 min) and the supernatants were taken out and stored in a freezer at −70 °C until analysis. The drug was extracted with acetonitrile using the condition previously described. Then, an aliquot of the reconstituted extracts was transferred and filtrated through a 0.22-μm cellulose membrane filter and 10 μL was injected into the HPLC-MS/MS system. A non-compartmental model was used to determine the pharmacokinetic parameters of DPTM. Pharmacokinetic parameters, including maximum plasma concentration (Cmax), time (Tmax), area under the plasma concentration versus time curve from zero to last sampling time (AUC0−t) and elimination half-life (t1/2) were calculated using WinNonlin software (version 2.1, Pharsight, Mountain View, CA, USA). The absolute bioavailability was calculated as follows:F = (AUCextravascular/(AUCi.v.) × (dosei.v./doseextravascular) × 100%. The data are presented as mean ± standard deviation (SD) except for Tmax values using median (minimum value–maximum value).

[2] = system: Gram-positive bacteria, including methicillin-resistant Staphylococcus aureus (MRSA), Staphylococcus aureus, Bacillus subtilis; set-up: method as in PMID 27940400; conditions: S. aureus, B. subtilis; cited from earlier work
[3] = Tissue distribution study in rats; type: in vivo, Sprague-Dawley rats; conditions: rat, 75 mg/kg; for highest level in cecum / highest level in jejunum / highest level in large intestine / highest level in lung / highest level in small intestine: within the first 24 h
Experimental: We also successfully used the established LC-MS/MS method for detection of the concentration of DPTM in rat tissue homogenates. The quantification of DPTM used the specific standard curves in each corresponding bio-matrix. After i.v., i.m. and p.o. administration of 75 mg/kg DPTM, tissue distribution was investigated at 0.5, 4, 12 and 48 h by collecting the heart, liver, brain, spleen, lung, kidney, large intestine, small intestine, ileum, cecum, bladder, jejunum and colon. Tissue distribution study in rats was performed as described previously. Animals were divided into three groups (n = 12) and DPTM was administered via i.m., i.v. and p.o. with a single dose of 75 mg/kg. A series of heart, liver, spleen, lung, kidney, large intestine, small intestine, ileum, cecum, bladder, brain, jejunum and colon samples were collected before and at 0.5, 4, 12 and 48 h time points after administration and rinsed with phosphate buffer to remove the blood and feces, followed by weighing the wet weight and freezing at −70 °C until analysis. The concentrations of DPTM in rat various tissues were expressed in ng/g and calculated by equation: Ct = Cs × Vs/P, where Ct represented the tissue concentration (ng/g), Cs, Vs and P were the concentration (ng/mL), the volume (mL) and the weight (g) of the tissue samples, respectively.

## C=CC1(C)CC(OC(=O)CSc2nc(N)cc(N)n2)C2(C)C(C)CCC3(CCC(=O)C32)C(C)C1O (stereo not shown) [DPTM, 14-O-[(4,6-Diaminopyrimidine-2-yl)thioacetyl] mutilin]
[1]; im, 10 mg/kg
  Tmax: 30 min
[1]; im, 25 mg/kg
  Tmax: 30 min
[1]; im, 75 mg/kg
  Tmax: 30 min
[1]; im, i.m., 10 mg/kg
  bioavailability: 68.2%
  MRT last: 4.4 ± 0.3 h
[1]; im, i.m., 25 mg/kg
  bioavailability: 48.5%
  MRT last: 4.8 ± 0.3 h
[1]; im, i.m., 75 mg/kg
  CL renal: 46.2 ± 3.8 mL/min
  bioavailability: 15.8%
  MRT last: 4.2 ± 0.8 h
[1]; iv, 10 mg/kg
  clearance: 5 mL/min/kg
  Tmax: 4.8 min
[1]; iv, 25 mg/kg
  clearance: 1.67 mL/min/kg
  Tmax: 4.8 min
[1]; iv, 75 mg/kg
  clearance: 0.5 mL/min/kg
  Tmax: 4.98 min
[1]; iv, i.v., 10 mg/kg
  MRT last: 1 ± 0.2 h
  Vd: 0.3 ± 0.1 L/kg
[1]; iv, i.v., 25 mg/kg
  MRT last: 1.3 ± 0.7 h
  Vd: 0.2 L/kg
[1]; iv, i.v., 75 mg/kg
  CL renal: 97.6 ± 9.6 mL/min
  MRT last: 1.5 ± 0.4 h
  Vd: 0.03 L/kg
[1]; po, 10 mg/kg
  Tmax: 120 min
[1]; po, 25 mg/kg
  Tmax: 120 min
[1]; po, 75 mg/kg
  Tmax: 120 min
[1]; po, p.o., 10 mg/kg
  bioavailability: 22.9%
  MRT last: 12.8 ± 0.1 h
[1]; po, p.o., 25 mg/kg
  bioavailability: 24.3%
  MRT last: 9.8 ± 0.2 h
[1]; po, p.o., 75 mg/kg
  CL renal: 12.2 ± 1.3 mL/min
  bioavailability: 4.17%
  MRT last: 6.9 ± 0.4 h
[1]; im, 10 mg/kg, i.m., 10 mg/kg, read-out: t1/2 (converted)
  half-life: 210 min
[1]; im, 10 mg/kg, rat serum, i.m., 10 mg/kg, read-out: AUC0→t
  AUC(0-t): 1500 ± 100 ng·h/mL
[1]; im, 10 mg/kg, rat serum, i.m., 10 mg/kg, read-out: Cmax
  Cmax: 500 ± 100 ng/mL
[1]; im, 25 mg/kg, i.m., 25 mg/kg, read-out: t1/2 (converted)
  half-life: 192 ± 12 min
[1]; im, 25 mg/kg, rat serum, i.m., 25 mg/kg, read-out: AUC0→t
  AUC(0-t): 2600 ± 200 ng·h/mL
[1]; im, 25 mg/kg, rat serum, i.m., 25 mg/kg, read-out: Cmax
  Cmax: 700 ± 100 ng/mL
[1]; im, 75 mg/kg, i.m., 75 mg/kg, read-out: t1/2 (converted)
  half-life: 198 ± 18 min
[1]; im, 75 mg/kg, i.m., range over 10, 25 and 75 mg/kg doses, read-out: area under the curve from 0 to 48 h (AUC0→t)
  AUC(0-t): 1520 to 5700 ng·h/mL
[1]; im, 75 mg/kg, i.m., range over 10, 25 and 75 mg/kg doses, read-out: half-life (t1/2)
  half-life: 194 to 209 min
[1]; im, 75 mg/kg, rat serum, i.m., 75 mg/kg, read-out: AUC0→t
  AUC(0-t): 5700 ± 200 ng·h/mL
[1]; im, 75 mg/kg, rat serum, i.m., 75 mg/kg, read-out: Cmax
  Cmax: 1800 ± 100 ng/mL
[1]; im, range over 10, 25 and doses, read-out: maximum concentration (Cmax) of drug in serum
  Cmax: 470 to 1830 ng/mL
[1]; iv, 10 mg/kg, i.v., 10 mg/kg, read-out: t1/2 (converted)
  half-life: 102 ± 6 min
[1]; iv, 10 mg/kg, rat serum, i.v., 10 mg/kg, read-out: AUC0→t
  AUC(0-t): 2200 ± 200 ng·h/mL
[1]; iv, 10 mg/kg, rat serum, i.v., 10 mg/kg, read-out: Cmax
  Cmax: 7500 ± 400 ng/mL
[1]; iv, 25 mg/kg, i.v., 25 mg/kg, read-out: t1/2 (converted)
  half-life: 102 ± 24 min
[1]; iv, 25 mg/kg, rat serum, i.v., 25 mg/kg, read-out: AUC0→t
  AUC(0-t): 5400 ± 200 ng·h/mL
[1]; iv, 25 mg/kg, rat serum, i.v., 25 mg/kg, read-out: Cmax
  Cmax: 16000 ± 500 ng/mL
[1]; iv, 75 mg/kg, i.v., 75 mg/kg, read-out: t1/2 (converted)
  half-life: 114 ± 30 min
[1]; iv, 75 mg/kg, i.v., range over 10, 25 and 75 mg/kg doses, read-out: area under the curve from 0 to 48 h (AUC0→t)
  AUC(0-t): 2230 to 36000 ng·h/mL
[1]; iv, 75 mg/kg, i.v., range over 10, 25 and 75 mg/kg doses, read-out: half-life (t1/2)
  half-life: 102 to 112 min
[1]; iv, 75 mg/kg, rat serum, i.v., 75 mg/kg, read-out: AUC0→t
  AUC(0-t): 36000 ± 300 ng·h/mL
[1]; iv, 75 mg/kg, rat serum, i.v., 75 mg/kg, read-out: Cmax
  Cmax: 65100 ± 800 ng/mL
[1]; iv, range over 10, 25 and doses, read-out: maximum concentration (Cmax) of drug in serum
  Cmax: 7540 to 65100 ng/mL
[1]; po, 10 mg/kg, p.o., 10 mg/kg, read-out: t1/2 (converted)
  half-life: 276 ± 6 min
[1]; po, 10 mg/kg, rat serum, p.o., 10 mg/kg, read-out: AUC0→t
  AUC(0-t): 500 ± 100 ng·h/mL
[1]; po, 10 mg/kg, rat serum, p.o., 10 mg/kg, read-out: Cmax
  Cmax: 100 ng/mL
[1]; po, 25 mg/kg, p.o., 25 mg/kg, read-out: t1/2 (converted)
  half-life: 264 ± 12 min
[1]; po, 25 mg/kg, rat serum, p.o., 25 mg/kg, read-out: AUC0→t
  AUC(0-t): 1300 ± 100 ng·h/mL
[1]; po, 25 mg/kg, rat serum, p.o., 25 mg/kg, read-out: Cmax
  Cmax: 200 ng/mL
[1]; po, 75 mg/kg, p.o., 75 mg/kg, read-out: t1/2 (converted)
  half-life: 282 ± 24 min
[1]; po, 75 mg/kg, p.o., range over 10, 25 and 75 mg/kg doses, read-out: area under the curve from 0 to 48 h (AUC0→t)
  AUC(0-t): 510 to 1500 ng·h/mL
[1]; po, 75 mg/kg, p.o., range over 10, 25 and 75 mg/kg doses, read-out: half-life (t1/2)
  half-life: 263 to 282 min
[1]; po, 75 mg/kg, rat serum, p.o., 75 mg/kg, read-out: AUC0→t
  AUC(0-t): 1500 ng·h/mL
[1]; po, 75 mg/kg, rat serum, p.o., 75 mg/kg, read-out: Cmax
  Cmax: 300 ± 100 ng/mL
[1]; po, range over 10, 25 and doses, read-out: maximum concentration (Cmax) of drug in serum
  Cmax: 50 to 310 ng/mL
[2]
  in vitro activities against Gram-positive bacteria: excellent in vitro activities
[3]; i.m.
  amount in colon until 48 h: 7849 ± 243 ng/mg
  highest level in cecum: 63404 ± 407 ng/mg
  highest level in jejunum: 12551 ± 432 ng/mg
  highest level in large intestine: 17978 ± 116 ng/mg
  highest level in lung: 15345 ± 579 ng/mg
  highest level in small intestine: 37890 ± 437 ng/mg
[3]; i.v.
  amount in colon until 48 h: 3214 ± 177 ng/mg
  highest level in cecum: 62457 ± 675 ng/mg
  highest level in jejunum: 23543 ± 799 ng/mg
  highest level in large intestine: 31241 ± 355 ng/mg
  highest level in lung: 39411 ± 357 ng/mg
  highest level in small intestine: 26753 ± 690 ng/mg
[3]; p.o.
  amount in colon until 48 h: 22114 ± 215 ng/mg
  highest level in cecum: 31087 ± 452 ng/mg
  highest level in jejunum: 38769 ± 546 ng/mg
  highest level in large intestine: 4123 ± 567 ng/mg
  highest level in lung: 14685 ± 654 ng/mg
  highest level in small intestine: 6743 ± 474 ng/mg

Source: paper PMC6413085, “A Validated HPLC-MS/MS Assay for 14-O-[(4,6-Diaminopyrimidine-2-yl)thioacetyl] Mutilin in Biological Samples and Its Pharmacokinetic, Distribution and Excretion via Urine and Feces in Rats” (Molecules, 2019)
